Test results reported in PMC4885109, “Rapid Discovery and Structure–Activity Relationships of Pyrazolopyrimidines That Potently Suppress Breast Cancer Cell Growth via SRC Kinase Inhibition with Exceptional Selectivity over ABL Kinase” (Journal of Medicinal Chemistry, 2016).
Read-outs that look alike come from different tables or passages of the source.

Key:
[1] = test system: MDA-MB-231 cells; assay: Dose-response viability assay (PrestoBlue), MDA-MB-231; assay type: cell-based, human; details: for decrease in antiproliferative activity relative to 11a: MDA-MB-231
[2] = target: SRC (Homo sapiens, UniProt P12931); assay: Kinase screening assay, 33P radioisotope (Reaction Biology)
[3] = target: FGR (Homo sapiens, UniProt P09769); assay: as above; assay type: biochemical
Chain of FGR (P09769 whole entry): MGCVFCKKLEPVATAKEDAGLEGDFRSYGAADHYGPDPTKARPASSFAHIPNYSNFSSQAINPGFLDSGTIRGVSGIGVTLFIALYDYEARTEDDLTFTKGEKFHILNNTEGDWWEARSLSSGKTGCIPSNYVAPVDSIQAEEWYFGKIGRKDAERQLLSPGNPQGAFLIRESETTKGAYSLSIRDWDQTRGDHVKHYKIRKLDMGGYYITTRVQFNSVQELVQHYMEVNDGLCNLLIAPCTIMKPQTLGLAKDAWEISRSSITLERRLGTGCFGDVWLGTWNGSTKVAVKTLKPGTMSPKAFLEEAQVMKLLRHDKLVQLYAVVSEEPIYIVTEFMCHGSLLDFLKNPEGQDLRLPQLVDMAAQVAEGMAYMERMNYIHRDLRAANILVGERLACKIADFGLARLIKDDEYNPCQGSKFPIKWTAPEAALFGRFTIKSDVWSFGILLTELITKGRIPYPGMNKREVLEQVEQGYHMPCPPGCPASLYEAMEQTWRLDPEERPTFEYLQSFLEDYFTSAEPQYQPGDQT

[4] = physchem; details: pH 7.4
[5] = test system: phospho-SRC^Y416 and phospho-FAK in MDA-MB-231 cells
[6] = target: CYP2C19 (Homo sapiens, UniProt P33261); details: 10 μM
Chain of CYP2C19 (P33261 whole entry): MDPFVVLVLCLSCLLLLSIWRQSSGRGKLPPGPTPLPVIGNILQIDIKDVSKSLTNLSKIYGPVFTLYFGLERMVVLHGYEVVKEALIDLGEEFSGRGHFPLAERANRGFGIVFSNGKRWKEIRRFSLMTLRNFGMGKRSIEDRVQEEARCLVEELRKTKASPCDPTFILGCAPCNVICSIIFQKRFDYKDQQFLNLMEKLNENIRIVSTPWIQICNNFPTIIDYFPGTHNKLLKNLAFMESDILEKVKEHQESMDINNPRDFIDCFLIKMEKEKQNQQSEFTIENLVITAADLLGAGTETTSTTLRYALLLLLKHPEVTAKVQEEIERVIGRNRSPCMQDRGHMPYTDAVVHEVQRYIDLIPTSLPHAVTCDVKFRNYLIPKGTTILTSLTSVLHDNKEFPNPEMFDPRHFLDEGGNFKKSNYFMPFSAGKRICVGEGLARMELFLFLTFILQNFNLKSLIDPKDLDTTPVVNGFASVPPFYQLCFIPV

[7] = in vivo; details: female, CD1, mouse, blood/plasma, 10 mg/kg
[8] = target: CYP2C9 (Homo sapiens, UniProt P11712); details: 10 μM
Chain of CYP2C9 (P11712 whole entry): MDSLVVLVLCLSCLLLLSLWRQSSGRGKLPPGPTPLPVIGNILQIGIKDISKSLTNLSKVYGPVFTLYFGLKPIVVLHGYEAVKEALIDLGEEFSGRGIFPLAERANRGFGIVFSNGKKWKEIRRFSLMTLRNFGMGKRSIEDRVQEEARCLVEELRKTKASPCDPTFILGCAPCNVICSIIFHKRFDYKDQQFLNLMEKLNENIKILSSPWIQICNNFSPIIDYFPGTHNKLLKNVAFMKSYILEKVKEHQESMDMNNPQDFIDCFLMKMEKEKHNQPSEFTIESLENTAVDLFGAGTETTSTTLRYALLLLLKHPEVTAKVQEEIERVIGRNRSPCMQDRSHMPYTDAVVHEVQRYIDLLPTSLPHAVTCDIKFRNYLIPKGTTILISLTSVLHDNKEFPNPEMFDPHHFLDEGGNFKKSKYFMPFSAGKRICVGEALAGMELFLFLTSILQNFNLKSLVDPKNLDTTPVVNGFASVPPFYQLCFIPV

[9] = test system: MCF7 cells
[10] = target: CYP3A4 (Homo sapiens, UniProt P08684); details: 10 μM
Chain of CYP3A4 (P08684 whole entry): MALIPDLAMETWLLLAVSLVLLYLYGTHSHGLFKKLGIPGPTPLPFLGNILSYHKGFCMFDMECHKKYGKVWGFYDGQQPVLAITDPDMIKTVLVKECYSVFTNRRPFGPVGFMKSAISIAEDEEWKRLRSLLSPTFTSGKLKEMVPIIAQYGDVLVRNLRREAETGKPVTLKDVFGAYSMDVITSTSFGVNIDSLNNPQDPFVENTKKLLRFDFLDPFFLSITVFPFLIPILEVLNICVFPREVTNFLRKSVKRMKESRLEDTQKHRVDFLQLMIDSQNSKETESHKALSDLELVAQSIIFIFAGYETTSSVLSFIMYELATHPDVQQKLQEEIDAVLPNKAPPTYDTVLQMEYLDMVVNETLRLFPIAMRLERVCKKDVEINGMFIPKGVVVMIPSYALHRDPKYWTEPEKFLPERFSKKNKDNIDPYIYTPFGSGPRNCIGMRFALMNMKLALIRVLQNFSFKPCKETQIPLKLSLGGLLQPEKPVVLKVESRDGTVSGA

[11] = target: T1, CYP1A2 (Homo sapiens, UniProt P05177); details: 10 μM
T1 sequence (P05177 1-516): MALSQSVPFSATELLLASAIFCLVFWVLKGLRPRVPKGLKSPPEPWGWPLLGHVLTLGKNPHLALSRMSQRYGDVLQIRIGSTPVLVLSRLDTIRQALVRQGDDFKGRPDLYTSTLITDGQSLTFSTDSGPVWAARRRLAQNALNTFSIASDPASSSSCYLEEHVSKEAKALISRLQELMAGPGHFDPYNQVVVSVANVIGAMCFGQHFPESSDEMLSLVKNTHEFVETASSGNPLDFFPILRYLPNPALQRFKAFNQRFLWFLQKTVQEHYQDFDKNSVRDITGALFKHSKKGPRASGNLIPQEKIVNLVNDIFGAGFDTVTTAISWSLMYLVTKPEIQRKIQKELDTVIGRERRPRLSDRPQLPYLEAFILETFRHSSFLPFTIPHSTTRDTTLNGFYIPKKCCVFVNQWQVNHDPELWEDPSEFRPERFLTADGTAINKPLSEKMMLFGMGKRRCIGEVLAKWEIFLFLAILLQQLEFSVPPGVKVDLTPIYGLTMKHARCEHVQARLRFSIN

[12] = target: CYP2D6 (Homo sapiens, UniProt P10635); details: 10 μM
[13] = in vitro; details: mouse, cryopreserved pooled primary hepatocytes
[14] = in vitro; details: human, cryopreserved pooled primary hepatocytes
[15] = test system: SYF murine embryonic fibroblasts (SRC-/-, YES-/-, FYN-/-); assay: Dose-response proliferation study in SYF cells; assay type: cell-based, mouse; details: compared with dasatinib
[16] = target: ABL (Homo sapiens, UniProt P00519); assay: Kinase screening assay, 33P radioisotope (Reaction Biology)
[17] = test system: MCF7 cells; assay: Time-lapse cell growth assay (IncuCyte ZOOM); assay type: cell-based, human; details: for antiproliferative mode of action by time-lapse imaging: 1–100 μM
[18] = target: HCK (Homo sapiens, UniProt P08631); assay: biochemical
Chain of HCK (P08631 whole entry): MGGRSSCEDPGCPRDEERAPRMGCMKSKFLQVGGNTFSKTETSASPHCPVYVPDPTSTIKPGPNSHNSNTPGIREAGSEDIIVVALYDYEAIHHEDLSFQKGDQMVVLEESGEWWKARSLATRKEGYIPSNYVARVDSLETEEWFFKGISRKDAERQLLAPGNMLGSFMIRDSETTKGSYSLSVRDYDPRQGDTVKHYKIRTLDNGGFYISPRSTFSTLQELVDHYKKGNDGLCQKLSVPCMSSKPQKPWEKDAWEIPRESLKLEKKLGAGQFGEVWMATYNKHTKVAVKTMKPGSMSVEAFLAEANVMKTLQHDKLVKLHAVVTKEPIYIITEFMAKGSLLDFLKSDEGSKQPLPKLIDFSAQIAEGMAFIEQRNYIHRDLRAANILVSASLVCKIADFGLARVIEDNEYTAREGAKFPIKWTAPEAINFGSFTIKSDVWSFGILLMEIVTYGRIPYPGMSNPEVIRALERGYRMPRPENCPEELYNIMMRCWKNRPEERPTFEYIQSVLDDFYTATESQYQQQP

[19] = target: LYN (Homo sapiens, UniProt P07948); assay: biochemical
Chain of LYN (P07948 whole entry): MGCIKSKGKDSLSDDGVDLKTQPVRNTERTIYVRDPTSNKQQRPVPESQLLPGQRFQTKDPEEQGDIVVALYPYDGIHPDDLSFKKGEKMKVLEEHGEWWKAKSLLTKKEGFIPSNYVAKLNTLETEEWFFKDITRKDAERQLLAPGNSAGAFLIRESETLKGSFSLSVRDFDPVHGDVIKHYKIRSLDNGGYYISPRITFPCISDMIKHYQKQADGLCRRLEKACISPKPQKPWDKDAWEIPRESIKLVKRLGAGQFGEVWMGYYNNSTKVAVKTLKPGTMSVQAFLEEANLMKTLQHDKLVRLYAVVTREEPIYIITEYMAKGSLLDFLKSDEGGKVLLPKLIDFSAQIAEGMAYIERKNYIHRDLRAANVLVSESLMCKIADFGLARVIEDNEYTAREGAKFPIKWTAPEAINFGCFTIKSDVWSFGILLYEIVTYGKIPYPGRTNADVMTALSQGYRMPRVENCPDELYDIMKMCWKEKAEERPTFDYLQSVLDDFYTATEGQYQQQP

[20] = target: FRK/PTK5 (Homo sapiens, UniProt P42685); assay: biochemical
Chain of FRK/PTK5 (P42685 whole entry): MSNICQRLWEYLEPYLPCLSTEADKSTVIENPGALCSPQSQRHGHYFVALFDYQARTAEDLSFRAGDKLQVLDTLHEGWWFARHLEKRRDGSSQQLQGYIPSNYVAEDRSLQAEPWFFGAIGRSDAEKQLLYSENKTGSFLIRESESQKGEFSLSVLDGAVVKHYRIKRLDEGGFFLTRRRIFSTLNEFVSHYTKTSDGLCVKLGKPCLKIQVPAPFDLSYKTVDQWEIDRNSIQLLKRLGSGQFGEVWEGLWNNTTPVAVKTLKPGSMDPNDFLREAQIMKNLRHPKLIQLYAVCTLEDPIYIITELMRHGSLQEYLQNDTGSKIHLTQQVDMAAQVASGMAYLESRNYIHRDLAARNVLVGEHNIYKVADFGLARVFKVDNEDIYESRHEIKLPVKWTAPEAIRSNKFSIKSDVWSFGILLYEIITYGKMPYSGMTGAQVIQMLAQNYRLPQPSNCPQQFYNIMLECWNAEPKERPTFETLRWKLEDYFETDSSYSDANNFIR

[21] = target: LCK (Homo sapiens, UniProt P06239); assay: Kinase screening assay, 33P radioisotope (Reaction Biology); assay type: biochemical; details: recombinant kinase, 10 μM ATP
Chain of LCK (P06239 whole entry): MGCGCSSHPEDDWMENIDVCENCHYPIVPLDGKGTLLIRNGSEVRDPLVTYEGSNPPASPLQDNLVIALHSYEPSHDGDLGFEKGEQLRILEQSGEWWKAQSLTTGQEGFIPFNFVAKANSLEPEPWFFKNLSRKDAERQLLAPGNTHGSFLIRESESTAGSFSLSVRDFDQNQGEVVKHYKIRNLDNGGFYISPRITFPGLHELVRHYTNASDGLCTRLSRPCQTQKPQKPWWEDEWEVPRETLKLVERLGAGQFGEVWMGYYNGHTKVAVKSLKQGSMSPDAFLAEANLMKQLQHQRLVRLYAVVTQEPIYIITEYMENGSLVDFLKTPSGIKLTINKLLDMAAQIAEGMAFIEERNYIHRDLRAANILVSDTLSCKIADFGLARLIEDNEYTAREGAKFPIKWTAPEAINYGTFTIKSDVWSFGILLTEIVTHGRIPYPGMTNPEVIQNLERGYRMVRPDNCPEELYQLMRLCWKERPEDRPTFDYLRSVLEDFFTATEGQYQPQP

[22] = test system: MCF7 cells; assay: Dose-response viability assay (PrestoBlue), MCF7; assay type: cell-based; details: Homo sapiens, MCF7, 120 h; 5 d, PrestoBlue cell viability
[23] = target: BLK (Homo sapiens, UniProt P51451); assay: biochemical
Chain of BLK (P51451 whole entry): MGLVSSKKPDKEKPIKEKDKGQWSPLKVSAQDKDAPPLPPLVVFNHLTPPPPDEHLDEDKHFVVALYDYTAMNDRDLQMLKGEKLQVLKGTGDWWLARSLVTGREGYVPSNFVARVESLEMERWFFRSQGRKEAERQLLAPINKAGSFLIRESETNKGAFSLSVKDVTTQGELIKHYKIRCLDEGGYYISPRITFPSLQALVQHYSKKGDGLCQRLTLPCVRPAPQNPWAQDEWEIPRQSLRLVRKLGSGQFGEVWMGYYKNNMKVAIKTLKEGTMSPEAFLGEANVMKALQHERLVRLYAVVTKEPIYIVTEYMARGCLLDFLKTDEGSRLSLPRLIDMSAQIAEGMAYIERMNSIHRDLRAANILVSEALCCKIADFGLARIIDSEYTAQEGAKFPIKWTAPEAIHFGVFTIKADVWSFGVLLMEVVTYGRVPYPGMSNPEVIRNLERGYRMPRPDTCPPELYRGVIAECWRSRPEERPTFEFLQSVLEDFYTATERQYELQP

[24] = cited from earlier work; for % F / Cmax / Tmax: PO
[25] = test system: MDA-MB-231 cells; assay: cells; details: Homo sapiens, MDA-MB-231, 24 h, read-out: IC50, MDA-MB-231 Cell Migration After 24h
[26] = cited from earlier work
[27] = test system: Tg(brn3c:mGFP) zebrafish embryos; assay type: in vivo; details: 1–10 μM (compatible with embryo survival)
[28] = human, rat, 24 h
[29] = recombinant kinase, 10 μM ATP, read-out: IC50 (FGR)
[30] = 5 mg/kg ref Kamath et al., 2008

Question: Which “decrease in antiproliferative activity relative to 11a” value [1] does the source give for CN(C)C1CCN(CCn2nc(-c3ccc(NC(=O)OC(C)(C)C)c(O)c3)c3c(N)ncnc32)CC1 [12s] here?
Answer: > 200 fold

Question: And the “decrease in SRC inhibitory activity relative to 11a” value [2]?
Answer: > 200 fold

Question: For Cc1ccc(-c2nn(C(C)(C)C)c3ncnc(N)c23)cc1 [PP1, reference compound], which IC50 [3] is on record?
Answer: 7.6 nM

Question: Which solubility [4] does the source give for COc1cc(-c2nn(CCN3CCC(N(C)C)CC3)c3ncnc(N)c23)ccc1NC(=O)OC(C)(C)C [11a, tert-Butyl N-[4-[4-amino-1-[2-[4-(dimethylamino)-1-piperidyl]ethyl]pyrazolo[3,4-d]pyrimidin-3-yl]-2-methoxy-phenyl]carbamate] here?
Answer: > 100 mg/mL

Question: What about the “concentration with complete inhibition of phosphorylation of SRC and FAK” value [5] of the same molecule?
Answer: 100 nM

Question: What about the “inhibition of CYP2C19” value [6] of the same molecule?
Answer: ≤ 0%

Question: What about the AUC ([7]; iv) of the same molecule?
Answer: 2070 ng·h/mL

Question: And the clearance ([7]; iv)?
Answer: 72.3 mL/min/kg

Question: And the AUC ([7]; po)?
Answer: 530 ng·h/mL

Question: What about the Cmax ([7]; po) of the same molecule?
Answer: 100 ng/mL

Question: And the Tmax ([7]; po)?
Answer: 2 h

Question: What about the “inhibition of CYP2C9” value [8] of the same molecule?
Answer: ≤ 0%

Question: What about the “concentration giving significant apoptotic cell death (caspase 3/7 activity)” value [9] of the same molecule?
Answer: ≥ 100 nM

Question: What about the “inhibition of CYP3A4” value [10] of the same molecule?
Answer: ≤ 0%

Question: And the “inhibition of CYP1A2” value [11]?
Answer: 24.54%

Question: What about the “inhibition of CYP2D6” value [12] of the same molecule?
Answer: ≤ 0%

Question: And the half-life at 3 µM [13]?
Answer: 110 min

Question: And the hepatocyte CLint at 3 µM [13]?
Answer: 12.5 µL/min/1e6 cells

Question: And the hepatocyte CLint at 3 µM [14]?
Answer: 1.84 µL/min/1e6 cells

Question: Which “antiproliferative activity in SYF cells” value [15] does the source give for COc1cc(-c2nn(CCN3CCC(CN(C)C)CC3)c3ncnc(N)c23)ccc1NC(=O)OC(C)(C)C [11b] here?
Answer: significantly less antiproliferative activity in SYF cells than dasatinib

Question: What about the IC50 [16] of the same molecule?
Answer: 189 nM

Question: Which “antiproliferative mode of action by time-lapse imaging” value [17] does the source give for CN(C)CC1CCN(CCn2nc(-c3cnc4[nH]ccc4c3)c3c(N)ncnc32)CC1 [9d, 1-[2-[4-(Dimethylaminomethyl)-1-piperidyl]ethyl]-3-(1H-pyrrolo[2,3-b]pyridin-5-yl)pyrazolo[3,4-d]pyrimidin-4-amine] here?
Answer: induced cell death

Question: Which EC50 ([1]; read-out: EC50 (MDA-MB-231), 5 d, PrestoBlue cell viability) does the source give for CN(C)C1CCN(CCn2nc(-c3ccc(NC(=O)OC(C)(C)C)nc3)c3c(N)ncnc32)CC1 [12u] here?
Answer: 16.7 µM

Question: What does the source list for Cc1ccc(-c2nn(CCN3CCC(CCN(C)C)CC3)c3ncnc(N)c23)cc1 [7k]?
Answer: IC50 [18]: 11.6 µM; IC50 [19]: 2510 nM; IC50 [20]: 3700 nM; IC50 [3, 29]: 601 nM; IC50 [21]: 4.34 µM

Question: Which EC50 [22] does the source give for Cc1ccc(-c2nn(CCN3CCCCC3)c3ncnc(N)c23)cc1 [7a] here?
Answer: 48.8 µM

Question: With CCOC(Cn1nc(-c2cnc3[nH]ccc3c2)c2c(N)ncnc21)OCC [8d, 1-(2,2-Diethoxyethyl)-3-(1H-pyrrolo[2,3-b]pyridin-5-yl)pyrazolo[3,4-d]pyrimidin-4-amine] as the molecule, how does the IC50 [18] read?
Answer: 6.77 µM

Question: What about the IC50 [19] of the same molecule?
Answer: 2310 nM

Question: And the IC50 [20]?
Answer: 2690 nM

Question: What about the IC50 [3, 29] of the same molecule?
Answer: 2130 nM

Question: And the IC50 [21]?
Answer: 8.61 µM

Question: What about the “antiproliferative mode of action by time-lapse imaging” value [17] of the same molecule?
Answer: halted cell division

Question: For Cc1ccc(-c2nn(CCN3CCC(CN(C)C)CC3)c3ncnc(N)c23)cc1 [7j], which IC50 [18] is on record?
Answer: 6.01 µM

Question: And the IC50 [19]?
Answer: 1070 nM

Question: And the IC50 [20]?
Answer: 1630 nM

Question: And the IC50 [23]?
Answer: 2850 nM

Question: What about the IC50 [21] of the same molecule?
Answer: 1.54 µM

Question: For COc1cc(-c2nn(CCN3CCC(N(C)C)CC3)c3ncnc(N)c23)ccc1N [12g], which EC50 [22] is on record?
Answer: 4.93 µM

Question: Which IC50 [18] does the source give for Cc1ccc(-c2nn(CCN3CCC(N(C)C)CC3)c3ncnc(N)c23)cc1 [7i] here?
Answer: 1.52 µM

Question: What about the IC50 [23] of the same molecule?
Answer: 1540 nM

Question: With Cc1nc(Nc2ncc(C(=O)Nc3c(C)cccc3Cl)s2)cc(N2CCN(CCO)CC2)n1.O [dasatinib] as the molecule, how does the T1/2 ([24]; IV, 10 mg/kg, mice ref Kamath et al., 2008 (58)) read?
Answer: 54 min

Question: What about the CL ([24]; IV, 10 mg/kg, mice ref Kamath et al., 2008) of the same molecule?
Answer: 61.7 mL/min/kg

Question: And the “% F” value [24, 30]?
Answer: 17%

Question: And the Cmax [24, 30]?
Answer: 0.104 µg/mL

Question: And the Tmax [24, 30]?
Answer: 2 h

Question: And the “% F” value ([24]; 5 mg/kg ref Luo et al., 2006)?
Answer: 45%

Question: What about the Cmax ([24]; 5 mg/kg ref Luo et al., 2006) of the same molecule?
Answer: 0.058 µg/mL

Question: And the Tmax ([24]; 5 mg/kg ref Luo et al., 2006)?
Answer: 1 h

Question: And the IC50 [25]?
Answer: 8.4 nM

Question: And the solubility in water ([26]; pH = 2.6 ref 56)?
Answer: 18 mg/mL

Question: What about the solubility in water ([26]; pH = 7 ref 56) of the same molecule?
Answer: < 0.001 mg/mL

Question: And the neuromast migration [27]?
Answer: did not inhibit the migration of neuromasts

Question: Which “decrease in antiproliferative activity relative to 11a” value [1] does the source give for COc1cc(-c2ccn(CCN3CCC(N(C)C)CC3)n2)ccc1NC(=O)OC(C)(C)C [12f] here?
Answer: > 3000 fold

Question: For O=c1ccc2ccc(O)cc2o1 [umbelliferone, reference compound], which half-life at 3 µM [13] is on record?
Answer: 1.4 min

Question: What about the hepatocyte CLint at 3 µM [13] of the same molecule?
Answer: 983 µL/min/1e6 cells

Question: And the half-life at 3 µM [14]?
Answer: 9.7 min

Question: What about the hepatocyte CLint at 3 µM [14] of the same molecule?
Answer: 150 µL/min/1e6 cells

Question: For COc1cc(-c2nn(CCN3CCC(N(C)C)CC3)c3ncnc(N)c23)ccc1NC(=O)CCc1ccccc1 [12k, N-[4-[4-amino-1-[2-[4-(dimethylamino)-1-piperidyl]ethyl]pyrazolo[3,4-d]pyrimidin-3-yl]-2-methoxy-phenyl]-3-phenyl-propanamide], which EC50 [22] is on record?
Answer: 7.04 µM

Question: Which “cell proliferation (% confluence over time)” value ([17]; single dose 100 μM, 5 d, time-lapse imaging) does the source give for Cc1ccc(-c2nn(CCN3CCN(C)CC3)c3ncnc(N)c23)cc1 [7d] here?
Answer: strong inhibition of cell proliferation

Question: For CC(=O)CC(c1ccccc1)c1c(O)c2ccccc2oc1=O (stereo not drawn) [Warfarin], which plasma protein bound [28] is on record?
Answer: 99–100%
